ChEMBL document CHEMBL5715954, “Silencing c-Myc translation as a therapeutic strategy through targeting PI3Kδ and CK1ε in hematological malignancies” (Blood, 2017)

Assays:
Set-up in all cases: scale not given: the % may be the effect or the level left
[1] = biological target: T1, Serine/threonine-protein kinase Nek8 (Homo sapiens) (UniProt Q86SG6); test: Inhibition of human NEK8 assessed as enzyme activity at 1 uM using myelin basic protein as substrate preincubated for 20 mins followed by [gamma-33P]-ATP addition and measured after 120 mins by radiometric Hot-SpotSM Kinase assay relative to control
T1 sequence (whole entry): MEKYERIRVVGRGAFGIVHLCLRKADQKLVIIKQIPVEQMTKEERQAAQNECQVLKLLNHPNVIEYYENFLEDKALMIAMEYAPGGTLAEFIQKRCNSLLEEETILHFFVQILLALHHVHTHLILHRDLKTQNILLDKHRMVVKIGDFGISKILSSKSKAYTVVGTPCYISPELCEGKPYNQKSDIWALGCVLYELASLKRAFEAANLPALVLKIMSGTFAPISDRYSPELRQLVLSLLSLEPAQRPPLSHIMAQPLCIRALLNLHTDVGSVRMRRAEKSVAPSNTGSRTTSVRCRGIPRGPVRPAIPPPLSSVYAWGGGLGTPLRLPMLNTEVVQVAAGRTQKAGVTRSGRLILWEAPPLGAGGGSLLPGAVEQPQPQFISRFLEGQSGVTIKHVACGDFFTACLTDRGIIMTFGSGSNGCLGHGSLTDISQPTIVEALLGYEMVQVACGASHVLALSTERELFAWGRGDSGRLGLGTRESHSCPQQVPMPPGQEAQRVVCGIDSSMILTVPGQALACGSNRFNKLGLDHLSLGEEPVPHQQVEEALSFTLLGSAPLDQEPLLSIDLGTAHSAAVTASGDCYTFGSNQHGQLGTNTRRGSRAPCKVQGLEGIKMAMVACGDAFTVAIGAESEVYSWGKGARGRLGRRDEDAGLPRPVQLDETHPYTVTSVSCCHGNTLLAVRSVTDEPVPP

[2] = biological target: Serine/threonine-protein kinase 32C (Homo sapiens) (UniProt Q86UX6); test: Inhibition of human STK32C assessed as enzyme activity at 1 uM using myelin basic protein as substrate preincubated for 20 mins followed by [gamma-33P]-ATP addition and measured after 120 mins by radiometric Hot-SpotSM Kinase assay relative to control
[3] = biological target: SRSF protein kinase 2 (Homo sapiens) (UniProt P78362); test: Inhibition of human SRPK2 assessed as enzyme activity at 1 uM using GRSRSRSRSR as substrate preincubated for 20 mins followed by [gamma-33P]-ATP addition and measured after 120 mins by radiometric Hot-SpotSM Kinase assay relative to control
[4] = biological target: Tyrosine-protein kinase ABL1 (Homo sapiens) (UniProt P00519); test: Inhibition of human ABL1 assessed as enzyme activity at 1 uM using EAIYAAPFAKKK as substrate preincubated for 20 mins followed by [gamma-33P]-ATP addition and measured after 120 mins by radiometric Hot-SpotSM Kinase assay relative to control
[5] = biological target: T2, Mitogen-activated protein kinase kinase kinase 7 (Homo sapiens) (UniProt O43318); test: Inhibition of human TAK1 assessed as enzyme activity at 1 uM using casein as substrate preincubated for 20 mins followed by [gamma-33P]-ATP addition and measured after 120 mins by radiometric Hot-SpotSM Kinase assay relative to control
T2 sequence (whole entry): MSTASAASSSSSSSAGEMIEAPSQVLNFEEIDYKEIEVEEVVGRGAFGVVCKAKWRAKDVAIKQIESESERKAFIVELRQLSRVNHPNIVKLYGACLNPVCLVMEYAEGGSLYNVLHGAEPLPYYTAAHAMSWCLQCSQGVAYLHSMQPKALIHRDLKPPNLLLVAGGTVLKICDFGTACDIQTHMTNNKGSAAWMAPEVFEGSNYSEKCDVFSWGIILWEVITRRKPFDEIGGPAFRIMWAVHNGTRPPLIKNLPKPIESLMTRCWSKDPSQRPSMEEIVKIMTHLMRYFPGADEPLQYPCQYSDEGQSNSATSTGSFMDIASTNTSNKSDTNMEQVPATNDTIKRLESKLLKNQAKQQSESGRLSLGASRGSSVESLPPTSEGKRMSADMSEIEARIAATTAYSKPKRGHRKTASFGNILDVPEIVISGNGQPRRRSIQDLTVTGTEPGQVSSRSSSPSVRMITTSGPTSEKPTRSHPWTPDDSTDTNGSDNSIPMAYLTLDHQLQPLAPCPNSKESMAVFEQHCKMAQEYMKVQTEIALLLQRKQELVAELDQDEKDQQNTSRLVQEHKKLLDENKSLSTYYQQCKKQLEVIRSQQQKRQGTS

[6] = biological target: Bone morphogenetic protein receptor type-1A (Homo sapiens) (UniProt P36894); test: Inhibition of human ALK3 assessed as enzyme activity at 1 uM using casein as substrate preincubated for 20 mins followed by [gamma-33P]-ATP addition and measured after 120 mins by radiometric Hot-SpotSM Kinase assay relative to control
[7] = biological target: T3, Serine/threonine-protein kinase BRSK2 (Homo sapiens) (UniProt Q8IWQ3); test: Inhibition of human BRSK2 assessed as enzyme activity at 1 uM using KKLNRTLSFAEPG as substrate preincubated for 20 mins followed by [gamma-33P]-ATP addition and measured after 120 mins by radiometric Hot-SpotSM Kinase assay relative to control
T3 sequence (whole entry): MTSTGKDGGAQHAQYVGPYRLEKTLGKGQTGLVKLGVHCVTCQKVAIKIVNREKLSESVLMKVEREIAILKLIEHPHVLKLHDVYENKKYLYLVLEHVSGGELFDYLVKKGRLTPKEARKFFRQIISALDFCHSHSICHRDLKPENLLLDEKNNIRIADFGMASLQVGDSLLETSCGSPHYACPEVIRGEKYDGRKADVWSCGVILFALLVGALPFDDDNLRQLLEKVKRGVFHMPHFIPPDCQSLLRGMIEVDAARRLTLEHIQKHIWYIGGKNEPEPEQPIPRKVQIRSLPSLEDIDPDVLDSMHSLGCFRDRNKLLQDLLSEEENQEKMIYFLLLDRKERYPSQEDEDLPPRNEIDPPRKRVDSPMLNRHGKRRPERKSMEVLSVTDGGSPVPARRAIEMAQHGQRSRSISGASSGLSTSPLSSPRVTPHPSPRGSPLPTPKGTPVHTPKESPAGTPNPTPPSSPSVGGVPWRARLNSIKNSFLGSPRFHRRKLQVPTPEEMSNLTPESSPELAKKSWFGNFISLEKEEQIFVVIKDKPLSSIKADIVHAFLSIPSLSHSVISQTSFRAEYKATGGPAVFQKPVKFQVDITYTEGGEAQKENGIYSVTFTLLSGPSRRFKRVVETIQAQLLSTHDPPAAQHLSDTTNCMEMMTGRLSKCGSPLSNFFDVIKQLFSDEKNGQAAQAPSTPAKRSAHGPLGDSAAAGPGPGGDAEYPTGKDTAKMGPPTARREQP

[8] = biological target: Serine/threonine-protein kinase N2 (Homo sapiens) (UniProt Q16513); test: Inhibition of human PKN2 assessed as enzyme activity at 1 uM using KKLNRTLSVA as substrate preincubated for 20 mins followed by [gamma-33P]-ATP addition and measured after 120 mins by radiometric Hot-SpotSM Kinase assay relative to control
Serine/threonine-protein kinase N2 (Homo sapiens), sequence (Q16513 whole entry, looked up): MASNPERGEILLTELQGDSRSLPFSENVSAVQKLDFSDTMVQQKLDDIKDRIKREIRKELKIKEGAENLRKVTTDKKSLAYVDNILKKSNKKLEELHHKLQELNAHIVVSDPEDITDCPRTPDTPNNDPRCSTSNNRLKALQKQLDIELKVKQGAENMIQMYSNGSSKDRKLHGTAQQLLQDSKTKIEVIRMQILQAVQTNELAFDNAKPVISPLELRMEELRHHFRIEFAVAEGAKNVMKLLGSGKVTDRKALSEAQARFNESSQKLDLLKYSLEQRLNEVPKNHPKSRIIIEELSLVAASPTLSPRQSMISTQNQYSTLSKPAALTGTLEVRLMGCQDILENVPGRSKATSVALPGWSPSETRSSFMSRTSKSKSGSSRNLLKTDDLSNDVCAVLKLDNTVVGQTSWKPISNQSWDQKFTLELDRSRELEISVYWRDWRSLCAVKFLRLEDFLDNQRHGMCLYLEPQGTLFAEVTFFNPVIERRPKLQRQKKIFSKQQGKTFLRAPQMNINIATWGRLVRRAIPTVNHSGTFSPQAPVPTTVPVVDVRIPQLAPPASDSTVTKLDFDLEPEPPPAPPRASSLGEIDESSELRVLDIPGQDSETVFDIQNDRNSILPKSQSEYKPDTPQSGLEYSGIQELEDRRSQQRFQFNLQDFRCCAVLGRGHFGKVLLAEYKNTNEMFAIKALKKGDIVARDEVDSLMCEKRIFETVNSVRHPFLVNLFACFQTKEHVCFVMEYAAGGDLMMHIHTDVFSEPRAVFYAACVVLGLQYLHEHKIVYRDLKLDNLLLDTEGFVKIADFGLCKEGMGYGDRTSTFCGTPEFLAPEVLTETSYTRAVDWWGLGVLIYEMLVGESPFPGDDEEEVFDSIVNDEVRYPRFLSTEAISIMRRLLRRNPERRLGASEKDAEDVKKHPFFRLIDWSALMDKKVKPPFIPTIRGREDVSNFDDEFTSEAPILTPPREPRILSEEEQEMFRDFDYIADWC

Tyrosine-protein kinase ABL1 (Homo sapiens), sequence (P00519 whole entry): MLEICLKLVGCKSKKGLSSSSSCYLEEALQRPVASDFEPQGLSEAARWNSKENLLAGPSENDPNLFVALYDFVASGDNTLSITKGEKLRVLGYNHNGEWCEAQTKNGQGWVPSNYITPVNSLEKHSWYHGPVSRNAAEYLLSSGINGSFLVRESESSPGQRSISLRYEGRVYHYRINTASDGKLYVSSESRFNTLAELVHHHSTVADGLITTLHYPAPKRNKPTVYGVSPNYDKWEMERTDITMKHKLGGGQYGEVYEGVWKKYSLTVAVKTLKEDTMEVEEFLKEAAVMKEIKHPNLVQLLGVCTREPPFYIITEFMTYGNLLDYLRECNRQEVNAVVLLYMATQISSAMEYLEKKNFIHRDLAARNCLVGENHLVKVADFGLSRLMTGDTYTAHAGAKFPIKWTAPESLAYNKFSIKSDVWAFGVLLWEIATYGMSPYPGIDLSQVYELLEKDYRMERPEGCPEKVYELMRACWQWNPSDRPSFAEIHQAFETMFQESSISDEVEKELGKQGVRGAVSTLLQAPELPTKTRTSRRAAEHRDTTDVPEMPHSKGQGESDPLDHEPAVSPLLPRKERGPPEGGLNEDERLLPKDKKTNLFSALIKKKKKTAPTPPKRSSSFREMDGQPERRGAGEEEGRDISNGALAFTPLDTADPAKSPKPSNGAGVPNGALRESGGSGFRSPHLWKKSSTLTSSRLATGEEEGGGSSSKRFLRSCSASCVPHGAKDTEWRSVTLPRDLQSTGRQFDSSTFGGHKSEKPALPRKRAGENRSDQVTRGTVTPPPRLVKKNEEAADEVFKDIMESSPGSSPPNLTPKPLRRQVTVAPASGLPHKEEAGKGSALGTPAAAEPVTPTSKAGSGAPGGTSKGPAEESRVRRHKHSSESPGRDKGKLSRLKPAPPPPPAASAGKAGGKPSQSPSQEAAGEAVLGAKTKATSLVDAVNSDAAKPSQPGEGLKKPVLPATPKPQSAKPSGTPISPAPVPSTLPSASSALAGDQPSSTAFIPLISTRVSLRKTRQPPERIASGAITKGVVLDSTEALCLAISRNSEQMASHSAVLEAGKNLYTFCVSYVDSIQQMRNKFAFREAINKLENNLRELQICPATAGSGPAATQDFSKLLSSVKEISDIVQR
Bone morphogenetic protein receptor type-1A (Homo sapiens), sequence (P36894 whole entry): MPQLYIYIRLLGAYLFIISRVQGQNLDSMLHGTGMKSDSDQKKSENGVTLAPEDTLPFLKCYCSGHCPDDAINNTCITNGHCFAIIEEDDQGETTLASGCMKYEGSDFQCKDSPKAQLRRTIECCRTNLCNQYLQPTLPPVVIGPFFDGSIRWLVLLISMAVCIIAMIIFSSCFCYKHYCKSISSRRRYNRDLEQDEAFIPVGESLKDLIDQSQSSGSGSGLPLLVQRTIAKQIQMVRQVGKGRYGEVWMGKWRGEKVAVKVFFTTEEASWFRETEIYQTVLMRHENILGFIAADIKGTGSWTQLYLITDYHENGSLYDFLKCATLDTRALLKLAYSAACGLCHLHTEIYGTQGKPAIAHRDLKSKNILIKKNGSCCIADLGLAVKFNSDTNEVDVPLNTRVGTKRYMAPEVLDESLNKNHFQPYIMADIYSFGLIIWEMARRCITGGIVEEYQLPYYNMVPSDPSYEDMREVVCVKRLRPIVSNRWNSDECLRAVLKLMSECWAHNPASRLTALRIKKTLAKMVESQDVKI
SRSF protein kinase 2 (Homo sapiens), sequence (P78362 whole entry, looked up): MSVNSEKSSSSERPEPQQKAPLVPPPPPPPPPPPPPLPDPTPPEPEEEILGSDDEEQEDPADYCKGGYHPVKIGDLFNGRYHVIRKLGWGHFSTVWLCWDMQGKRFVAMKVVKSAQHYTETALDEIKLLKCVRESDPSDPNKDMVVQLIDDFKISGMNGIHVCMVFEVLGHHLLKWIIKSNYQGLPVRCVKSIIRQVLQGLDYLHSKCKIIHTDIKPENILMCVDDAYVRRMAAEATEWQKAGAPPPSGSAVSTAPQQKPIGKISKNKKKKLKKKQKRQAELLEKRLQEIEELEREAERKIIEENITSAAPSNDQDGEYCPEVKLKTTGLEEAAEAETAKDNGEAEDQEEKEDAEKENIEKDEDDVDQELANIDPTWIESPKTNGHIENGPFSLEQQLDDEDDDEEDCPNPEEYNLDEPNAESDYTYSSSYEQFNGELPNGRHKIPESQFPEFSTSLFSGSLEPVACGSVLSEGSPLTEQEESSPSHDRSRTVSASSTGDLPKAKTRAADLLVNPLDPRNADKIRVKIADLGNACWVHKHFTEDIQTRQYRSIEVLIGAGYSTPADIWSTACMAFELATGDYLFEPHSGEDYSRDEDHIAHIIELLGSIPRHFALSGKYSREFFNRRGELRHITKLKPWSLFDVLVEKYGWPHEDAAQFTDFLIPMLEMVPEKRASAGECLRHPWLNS
Serine/threonine-protein kinase 32C (Homo sapiens), sequence (Q86UX6 whole entry): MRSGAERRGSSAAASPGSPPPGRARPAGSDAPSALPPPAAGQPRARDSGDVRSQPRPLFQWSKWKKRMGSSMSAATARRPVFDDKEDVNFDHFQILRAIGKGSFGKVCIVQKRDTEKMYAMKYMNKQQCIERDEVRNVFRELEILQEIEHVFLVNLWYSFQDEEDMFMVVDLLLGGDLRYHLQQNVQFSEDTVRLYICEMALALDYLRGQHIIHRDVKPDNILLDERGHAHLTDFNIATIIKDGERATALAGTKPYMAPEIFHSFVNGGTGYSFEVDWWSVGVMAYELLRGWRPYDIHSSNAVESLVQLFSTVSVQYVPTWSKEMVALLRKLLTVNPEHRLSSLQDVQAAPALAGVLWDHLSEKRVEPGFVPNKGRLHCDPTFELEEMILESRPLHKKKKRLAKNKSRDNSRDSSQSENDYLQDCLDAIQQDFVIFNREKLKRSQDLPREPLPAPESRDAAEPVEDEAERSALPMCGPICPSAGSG

| Compound | Activity [1] [%] | Activity [2] [%] | Activity [3] [%] | Activity [4] [%] | Activity [5] [%] | Activity [6] [%] | Activity [7] [%] | Activity [8] [%] |
| --- | --- | --- | --- | --- | --- | --- | --- | --- |
| C[C@H](Nc1ncnc2nc[nH]c12)c1cc2cccc(Cl)c2c(=O)n1-c1ccccc1 | 95 | 94.3 | 92.3 | 97.2 | 98.7 | 101 | 95.1 | 84.5 |
| CC[C@H](Nc1ncnc2[nH]cnc12)c1nc2cccc(F)c2c(=O)n1-c1ccccc1 | 94.3 | 105 | 91.3 | 99.5 | 102 | 105 | 98.9 | 84.7 |
| CC(C)Oc1ccc(-c2nn([C@@H](C)c3oc4ccc(F)cc4c(=O)c3-c3cccc(F)c3)c3ncnc(N)c23)cc1F [UMBRALISIB] | 91 | 111 | 86 | 95.1 | 99 | 89.5 | 99.1 | 84.4 |
